Data as given in patent US20050144659A1, “Animals and cells containing a mutated alpha2delta gene” (priority 2003, published 2005).

What was measured:
[1] = test system: R217A WT, HET and KI mice and parent strains; test: Vogel water-lick conflict; format: in vivo, mouse; details: for anxiolytic-like effect: R217A knockins
Description: Albino or C57BL/6J-Tyr were also included in the experiments for comparison purposes. Male C57BL/6J (Jackson Laboratories), and 129S6/SvEV (Taconic Farms) mice were received at 8 weeks old in quantities sufficient for each study to be completed in one experiment. Parent strains were housed one week prior to testing.
On the side of each chamber (1.5 in. above the floor) a module optical lickometer was mounted. The lickometer was used to measure licking from a drink tube attached to a water bottle mounted on the exterior of the chamber. A photo beam was piped via glass rods across a gap at the end of the drink tube. The subject's tongue breaks the beam when it drinks from the tube and each lick was automatically recorded. […] The reduced chamber space limited the animal's activity and directed behavior towards the drink tube during a 10-minute session. The front and back of the test chamber was made of clear Plexiglas. The front door was covered to reduce distractions from inside the test room. The back of the test chamber faced a wall, away from the flow of traffic in the testing room, and remained uncovered to provide the opportunity for observations. Shock was delivered between the grid floor and the drink tube using a (Coulbourn) programmable universal shocker for a duration of one second, but terminated immediately when contact between the animal and drink tube was broken.
PROCEDURE: On day one, after 24 hours of water deprivation, experimental subjects were placed in the test chambers and allowed to drink unpunished for a 10-minute training session. Mice were required to complete a 100-150 lick criteria during the training session. […] Immediately after the day one session mice were returned to their home cages and deprived of water and food for an additional 24 hours. On test day two, mice were dosed by intraperitoneal (IP) injection with vehicle or test compound. After a 60 or 120-minute absorption period mice were placed into the test chambers for a 10-minute test session. During the test, shock was delivered on a fixed ratio (FR) 10 schedule. Therefore, after every 10th lick the subject received a mild shock. […] A low number of shock episodes accepted reflects anxiety-related behavior. Standard anxiolytic drugs produce effects that allow mice to overcome the behavioral inhibition and drink despite the shock. […] All data were analyzed using a one-way ANOVA/Dunn's Method.
DRUGS: Pregabalin was dissolved in physiological saline for all experiments. The positive control diazepam was suspended in 2% cremophor in physiological saline.
C57BL/6J mice were tested at 0.4 mA, C57BL/6J-Tyr mice were tested at 0.1 mA and 129S6/SvEV mice were tested at 0.6 mA. […]

[2] = test system: R217A mutant lines and background mouse strains; test: Maximal electroshock procedure (MES); format: in vivo; details: for responsiveness to anticonvulsant effects: all background strains, mutant, heterozygous mutant and wildtype (all lines)
Method: Anticonvulsant effectiveness was determined by using an electroconvulsive seizure model as described elsewhere [White et al., 1995]. Mice had free access to food and water and were housed in a temperature and light-controlled environment (12 h on/12 h off) prior to drug administration. Electroshock in mice was delivered using corneal electrodes with varied electroshock intensity. Current was delivered (60 Hz sinusoidal current, 11 to 17 mA baseline to peak vs. 50 mA for 0.2 s) using a constant-current stimulator (Wahlquist Instruments, Salt Lake City, Utah). The intensities of current necessary to produce tonic extensor seizures for each mouse strain and mutant lines in all of the mice were determined. These currents were then used for further testing of mice with pregabalin. All dose-response testing was conducted at the previously determined time of peak drug effect. Groups of 10 mice each were give various intraperitoneal doses of pregabalin dissolved in 0.9% saline, diazepam (veh) or phenyloin and given in a volume of 10 ml/kg of body weight. ED50 values (calculated dose required to inhibit the hindlimb tonic-extensor component of the maximal electroshock seizure in 50% of the animals tested) were determined by probit analysis [Litchfield, Wilcoxon], and used to compare relative potency between compounds. At least four groups of mice and each animal was employed once. The animals, pretreated with different doses of the tested drugs, were challenged with one electroshock at previously determined times of peak drug effect (pregabalin: 120 min; diazepam: 60 min; phenyloin; 60 min).
Anticonvulsant effects of pregabalin were reduced in −/− mice as compared to the +/+mice.

[3] = test system: brain membranes from the R217A mutant mouse; test: 3H gabapentin binding to mouse brain membranes; details: R217A mutant mouse in comparison to wildtype mice; tracer 3H gabapentin; FIG. 3
Method: Membranes were prepared from whole mouse brains. […] Total binding was determined in the absence of competitor. Non-specific binding was determined in the presence of 10 μM unlabeled pregabalin.

[4] = target: α2/δ2 (Homo sapiens, UniProt Q9NY47); details: background statement; cited from earlier work
Chain of α2/δ2 (Q9NY47 19-1150): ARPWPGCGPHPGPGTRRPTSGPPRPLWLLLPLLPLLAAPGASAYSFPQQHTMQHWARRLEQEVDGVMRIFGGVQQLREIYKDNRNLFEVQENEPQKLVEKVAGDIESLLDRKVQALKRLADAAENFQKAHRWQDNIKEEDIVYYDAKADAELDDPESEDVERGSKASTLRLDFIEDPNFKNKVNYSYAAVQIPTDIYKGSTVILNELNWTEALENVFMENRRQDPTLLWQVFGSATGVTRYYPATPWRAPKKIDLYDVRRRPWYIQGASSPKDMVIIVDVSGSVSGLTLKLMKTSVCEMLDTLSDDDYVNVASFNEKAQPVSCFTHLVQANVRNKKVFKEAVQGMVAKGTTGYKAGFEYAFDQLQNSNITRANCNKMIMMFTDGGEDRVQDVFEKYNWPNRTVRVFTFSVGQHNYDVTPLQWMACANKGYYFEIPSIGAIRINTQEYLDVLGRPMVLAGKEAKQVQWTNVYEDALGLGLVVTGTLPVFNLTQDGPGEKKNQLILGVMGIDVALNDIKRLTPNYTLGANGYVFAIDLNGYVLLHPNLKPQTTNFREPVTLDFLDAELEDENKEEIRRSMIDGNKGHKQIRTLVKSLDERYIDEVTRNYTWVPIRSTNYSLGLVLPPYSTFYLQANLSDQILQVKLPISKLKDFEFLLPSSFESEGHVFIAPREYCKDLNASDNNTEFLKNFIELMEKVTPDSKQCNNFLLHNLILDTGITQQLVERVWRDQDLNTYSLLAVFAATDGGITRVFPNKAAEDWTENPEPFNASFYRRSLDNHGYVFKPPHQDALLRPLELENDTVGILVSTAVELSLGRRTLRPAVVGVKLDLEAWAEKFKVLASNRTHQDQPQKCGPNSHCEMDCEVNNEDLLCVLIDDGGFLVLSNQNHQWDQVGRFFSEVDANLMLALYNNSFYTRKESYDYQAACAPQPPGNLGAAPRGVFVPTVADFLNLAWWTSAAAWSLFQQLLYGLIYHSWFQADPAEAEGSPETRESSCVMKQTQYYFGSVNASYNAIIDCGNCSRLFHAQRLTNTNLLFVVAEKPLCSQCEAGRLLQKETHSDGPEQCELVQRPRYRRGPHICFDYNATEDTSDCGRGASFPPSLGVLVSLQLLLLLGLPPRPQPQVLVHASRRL
Chain of α2/δ2 (Q9NY47 1002-1150 partner limits assumed): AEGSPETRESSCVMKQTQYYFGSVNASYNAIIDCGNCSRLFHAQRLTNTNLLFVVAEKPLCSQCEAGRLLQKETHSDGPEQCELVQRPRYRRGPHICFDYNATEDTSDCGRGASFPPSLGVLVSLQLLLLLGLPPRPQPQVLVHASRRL

[5] = test system: α2/δ1 R217A wild type, heterozygous, and homozygous mice; test: Formalin foot-pad procedure (formalin-induced hyperalgesia); format: in vivo, mouse; details: mice with arg 217 changed to alanine versus heterozygous and wildtype; PO, 120 minutes prior to testing; FIG. 4
Method: Male α2/δ1 R217A wild type, heterozygous, and homozygous mice, weighing 1940 grams, were used for testing. Animals were maintained on a 12 hour light/dark cycle with food and water available ad libitum. Animals were food deprived overnight the day before testing. On test day, animals were acclimated to the observation chambers for approximately 60 min. The observation chambers were eight inch square boxes consisting of solid, acrylic plastic mirrors for the floor and 3 walls. The fourth wall was clear acrylic that allowed for observation. Animals were dosed PO with either vehicle or pregabalin, 120 minutes prior to testing at a dose volume 10 mL/kg. At test time, animals received a 25 μL injection of a 5% formalin solution in water in the plantar surface of the left hind foot. […] These behaviors were timed using a hand-held stopwatch and recorded at 5 min intervals. Data was analyzed by the two distinct phases of responding. Early phase responding included Minutes 0-10, and late phase responding included Minutes 1145. The total time spent licking by drug-treated animals in each phase was compared to the total time spent licking by vehicle-treated animals.
FIG. 4 depicts formalin-induced hyperalgesia in R217A mutant homozygous mice in comparison to that of heterozygous and wildtype mice.

[6] = test system: α2/δ1 R217A wild type and homozygous mice; test: Tail Suspension Test (TST); format: in vivo, mouse; details: R217A homozygous mutant versus wildtype mice; dosed 120 minutes prior to testing; FIG. 5
Method: Male α2/δ1 R217A wild type and homozygous mice, weighing 22-35 grams, were used for testing. Animals were maintained on a 12 hour light/dark cycle with food and water available ad libitum. Animals were food deprived overnight the day before testing. On test day, animals were placed by groups of 8 into holding cages to acclimate for sixty minutes prior to dosing. Vehicle or pregabalin was administered 120 minutes prior to testing at a dose volume of 10 mL/kg. At test time, a piece of transparent tape was placed around the distal portion of the tail. The tape was then attached to a hook connected to an electro-mechanical apparatus that recorded the amount of time a mouse moved and the force used during movement. The hook was located at the top of a 24×18 cm testing chamber. Animals were completely suspended in air approximately 5 cm off the floor of the chamber for six minutes. Mean time of struggling and force of movement were then calculated for each group of eight.
Animals are placed by groups of eight into holding cages to acclimate for thirty to sixty minutes prior to dosing. Treatments are generally administered 60 to 120 minutes prior to testing, although this also varies with specific compounds. At test time, a piece of scotch tape is placed around the distal portion of the tail. […]

[7] = test system: R217A knock-in and wild-type mice; test: Chronic constriction injury (CCI)-induced static allodynia, von Frey hairs; format: in vivo, mouse; details: sub cutaneous 30-100 mg/kg, FIG. 8
Description: Animals were placed in an anaesthetic chamber and anaesthetised with a 2% isofluorane O2 mixture. The right hind thigh is shaved and swabbed with 1% iodine. Animals were then transferred to a homeothermic blanket for the duration of the procedure and anaesthesia maintained during surgery via a nose cone. The skin was cut along the line of the thigh bone. The common sciatic nerve was exposed at the middle of the thigh by blunt dissection through biceps femoris. Proximal to the sciatic trifurcation, about 5 mm of nerve was freed by inserting forceps under the nerve and the nerve gently lifted out of the thigh. The forceps were gently opened and closed several times to aid clearance of the fascia from the nerve. […]
Animals were habituated to wire test cages prior to the assessment of allodynia. Static allodynia was evaluated by application of von Frey hairs (Stoelting, Wood Dale, Ill., U.S.A.) in ascending order of force ([…], 0.4, 0.6, 1.0, 1.5 and 2.0 g) to the plantar surface of hind paws. […] The lowest amount of force required to elicit a response was recorded as paw withdrawal threshold (PWT) in grams. […]
Baseline (BL) paw withdrawal thresholds (PWT) to von Frey hairs were assessed. Following drug administration PWT were re-assessed for up to 4 h. […]

SMILES: CN1C(=O)CN=C(c2ccccc2)c2cc(Cl)ccc21 [diazepam]
- anxiolytic-like effect [1]: Diazepam (+control) failed to produce an anxiolytic-like effect in R217A knockins. Data suggests 129S6-parent strain's genotype may be responsible for pharmacological profile of diazepam
- responsiveness to anticonvulsant effects ([2]; FIG. 9): fully responsive

SMILES: NCC1(CC(=O)O)CCCCC1 [gabapentin, 1-(aminomethyl)cyclohexaneacetic acid]
- gabapentin binding to brain membranes [3]: reduced, or greatly abolished
- binding affinity [4]: high affinity

SMILES: O=C1NC(=O)C(c2ccccc2)(c2ccccc2)N1 [phenyloin]
- responsiveness to anticonvulsant effects ([2]; FIG. 9): fully responsive

SMILES: CC(C)C[C@H](CN)CC(=O)O [pregabalin]
- increase @ 100 (punished responding) ([1]; Knockins, shock 0.7 mA, dose 100 (mg/kg IP)): non-significant
- anxiolytic-like effect [1]: Pregabalin did not produce a significant anxiolytic-like effect in R217A knockins, and no evidence was obtained relating phenotype to particular parent strain
- increase in punished licking ([1]; knock-in mice homozygous for R217A, compared to wild-type, heterozygous or back-ground strains): does not produce a statistically significant increase
- efficacy in formalin-induced hyperalgesia (licking or biting of injected foot) [5]: reduced efficacy
- potency in protecting against seizures ([2]; mutant mice versus wild-type, heterozygous or back-ground strains): less potent
- anticonvulsant effects ([2]; −/− mice as compared to +/+ mice, FIG. 9): reduced
- sensitivity to effects in MES ([2]; −/− mice versus +/+ mice, FIG. 9): less sensitive
- sedative and/or anxiolytic effect in TST [6]: exerts its sedative and/or anxiolytic effect in TST through the α2/δ1 polypeptide
- effect on CCI-induced punctate allodynia (paw withdrawal threshold) ([7]; knock-in mice): no effect
- blockade of CCI-induced punctate allodynia (paw withdrawal threshold) ([7]; wild type mice): significant blockade
